Source: US11008346B2, “Beta-lactamase inhibitors” (priority 2014, dated 2021)

Tests used:
[1] = test system: K. pneumoniae A-1797 expressing KPC-2 and VIM-4; test: broth microdilution MIC, K. pneumoniae KPC-2 and VIM-4; type: cell-based; conditions: Fixed Mero (meropenem) 4 μg/mL
Procedure, shortened: (§1)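 CAMHB; strains pre-grown 3-5 h. Test cpd 2-fold dilutions, 32→0.25 μg/mL final, + beta-lactam static 4 μg/mL. CLSI inoculation, 16-20 h at 37° C, visual MIC.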

p99 AmpC β-lactamase = molecular target: T1, p99 AmpC β-lactamase (Enterobacter cloacae, UniProt P05364); test: β-lactamase enzyme inhibition, p99 AmpC; type: biochemical
T1 construct: made in house; host or cells: E. coli BL21(DE3)
Procedure, shortened: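 Native untagged E. cloacae p99 AmpC was expressed in E. coli BL21(DE3) and purified by cation exchange and gel filtration. Enzyme was preincubated with inhibitor at 37°C for 15 min.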

[2] = test system: S. aureus MSSA-7 producing penicillinase PC-1; test: broth microdilution MIC, S. aureus PC-1; type: cell-based; conditions: Fixed Pip (piperacillin) 4 μg/mL
Procedure, shortened: as §1

[3] = test system: E. coli ESBL4 expressing CTX-M-15; test: broth microdilution MIC, E. coli CTX-M-15; type: cell-based; conditions: Fixed CAZ (ceftazidime) 4 μg/mL
Procedure, shortened: as §1

[4] = test system: K. pneumoniae 156319 expressing KPC-3; test: broth microdilution MIC, K. pneumoniae KPC-3; type: cell-based; conditions: Fixed Mero (meropenem) 4 μg/mL
Procedure, shortened: as §1

KPC-2 β-lactamase = molecular target: T2, KPC-2 β-lactamase (Klebsiella pneumoniae, UniProt Q9F663); test: β-lactamase enzyme inhibition, KPC-2; type: biochemical; conditions: imipenem substrate, 300 nm; 15 min at 37° C. preincubation; read-out: IC50 KPC-2 (Class A)
T2 construct: made in house; host or cells: E. coli BL21(DE3)
Procedure, shortened: (§2)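 Native untagged enzymes expressed in E. coli BL21(DE3) and purified by cation exchange and gel filtration were preincubated with inhibitor for 15 min at 37° C. Hydrolysis was followed for 10 min: nitrocefin (100 μM final, 486 nm) for OXA-1 and p99 AmpC, imipenem (300 nm) for KPC-2, cefotaxime (260 nm) for SHV-5; IC50 from initial rates.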

OXA-1 β-lactamase = molecular target: T3, OXA-1 β-lactamase (Escherichia coli, UniProt P13661); test: β-lactamase enzyme inhibition, OXA-1; type: biochemical; conditions: Nitrocefin 100 μM, 486 nm; 15 min at 37° C. preincubation; read-out: IC50 OXA-1 (Class D)
T3 construct: made in house; host or cells: E. coli BL21(DE3)
Procedure, shortened: as §2

[5] = test system: E. cloacae 144200 expressing Class C P99 AmpC; test: broth microdilution MIC, E. cloacae P99; type: cell-based; conditions: Fixed CAZ (ceftazidime) 4 μg/mL
Procedure, shortened: as §1

SHV-5 β-lactamase = molecular target: T4, SHV-5 β-lactamase (Klebsiella pneumoniae, UniProt P0A3M1); test: β-lactamase enzyme inhibition, SHV-5; type: biochemical
T4 construct: made in house; host or cells: E. coli BL21(DE3)
Procedure, shortened: as §2

[6] = molecular target: T5, VIM-2 metallo β-lactamase (Pseudomonas aeruginosa, UniProt Q9K2N0); test: β-lactamase enzyme inhibition, VIM-2; type: biochemical; conditions: Nitrocefin 100 μM, 486 nm; 15 min at 37° C. preincubation; read-out: IC50 VIM-2 (Class B)
T5 construct: made in house; host or cells: E. coli BL21(DE3)
Procedure, shortened: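 VIM-2 purified by Q sepharose anion exchange (50 mM Hepes pH 7.5, 0-600 mM NaCl gradient, two runs, >90% purity). Enzyme preincubated with inhibitor 15 min at 37° C; nitrocefin 100 μM final, absorbance at 486 nm followed 10 min. IC50 from initial hydrolysis rates versus inhibitor-free controls.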

[7] = test system: P. aeruginosa Ps296 expressing VIM-2; test: broth microdilution MIC, P. aeruginosa VIM-2; type: cell-based; conditions: Fixed Mero (meropenem) 4 μg/mL
Procedure, shortened: as §1

T1 sequence (P05364 21-381): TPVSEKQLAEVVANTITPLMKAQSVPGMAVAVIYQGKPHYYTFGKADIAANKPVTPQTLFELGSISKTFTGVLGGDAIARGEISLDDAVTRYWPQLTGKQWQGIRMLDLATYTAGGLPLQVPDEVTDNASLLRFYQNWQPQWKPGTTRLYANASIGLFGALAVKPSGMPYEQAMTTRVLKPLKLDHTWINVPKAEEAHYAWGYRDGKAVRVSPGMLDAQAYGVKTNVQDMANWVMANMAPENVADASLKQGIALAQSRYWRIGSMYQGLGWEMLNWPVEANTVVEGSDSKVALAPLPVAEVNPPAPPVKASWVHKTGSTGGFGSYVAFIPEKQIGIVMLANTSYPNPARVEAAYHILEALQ
T3 sequence (P13661 26-276): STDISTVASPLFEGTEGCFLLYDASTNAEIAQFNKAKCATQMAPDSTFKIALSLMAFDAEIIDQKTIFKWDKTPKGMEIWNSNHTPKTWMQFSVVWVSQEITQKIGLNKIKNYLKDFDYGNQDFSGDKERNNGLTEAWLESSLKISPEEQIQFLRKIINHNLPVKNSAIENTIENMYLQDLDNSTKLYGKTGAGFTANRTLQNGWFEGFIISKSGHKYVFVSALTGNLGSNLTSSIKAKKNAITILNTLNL
T2 sequence (Q9F663 25-293, looked up): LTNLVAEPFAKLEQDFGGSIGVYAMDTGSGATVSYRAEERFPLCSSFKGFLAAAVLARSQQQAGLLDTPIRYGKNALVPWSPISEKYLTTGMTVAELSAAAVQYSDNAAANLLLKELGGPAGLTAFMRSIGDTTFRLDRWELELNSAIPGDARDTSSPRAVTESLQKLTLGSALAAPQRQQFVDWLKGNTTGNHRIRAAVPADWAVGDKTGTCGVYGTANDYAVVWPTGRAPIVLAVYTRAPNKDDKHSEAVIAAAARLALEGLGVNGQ
T4 sequence (P0A3M1 22-286): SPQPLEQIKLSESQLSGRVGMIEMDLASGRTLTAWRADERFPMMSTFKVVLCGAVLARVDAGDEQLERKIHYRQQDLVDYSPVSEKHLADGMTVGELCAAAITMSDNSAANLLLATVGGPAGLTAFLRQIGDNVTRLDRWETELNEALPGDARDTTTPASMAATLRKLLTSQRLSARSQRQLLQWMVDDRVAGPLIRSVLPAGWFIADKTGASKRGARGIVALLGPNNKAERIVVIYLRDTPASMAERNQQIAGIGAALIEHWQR

Compound	MIC of exemplary compounds in presence of fixed β-lactams, K.P. A-1797 KPC-2 VIM-4 [1]	IC50 (p99 AmpC β-lactamase) [nM]	MIC of exemplary compounds in presence of fixed β-lactams, S. aureus MSSA-7 PC-1 [2]	MIC of exemplary compounds in presence of fixed β-lactams, E. coli ESBL4 CTX-M-15 [3]	MIC of exemplary compounds in presence of fixed β-lactams, K.P. 156319 KPC-3 [4]	IC50 (KPC-2 β-lactamase) [nM]	IC50 (OXA-1 β-lactamase) [nM]	MIC of exemplary compounds in presence of fixed β-lactams, E. cl. 144200 p99 AmpC [5]	IC50 (SHV-5 β-lactamase) [nM]	IC50 [6] [nM]	MIC of exemplary compounds in presence of fixed β-lactams, P. aerug. Ps296 VIM-2 [7]
CC(C)(Cl)CCC(=O)N[C@H]1Cc2cccc(C(=O)O)c2OB1O [Example 24, (R)-3-(4-chloro-4-methylpentanamido)-2-hydroxy-3,4-dihydro-2H-benzo[e][1,2]oxaborinine-8-carboxylicacid]	B (B represents the MIC in the presence of between 8 and 32 g/mL of a β-lactamase inhibitor)	< 100	C (C represents the MIC in the presence of ≤4 g/mL of a β-lactamase inhibitor)	C (C represents the MIC in the presence of ≤4 g/mL of a β-lactamase inhibitor)	C (C represents the MIC in the presence of ≤4 g/mL of a β-lactamase inhibitor)	< 100	< 100	C (C represents the MIC in the presence of ≤4 g/mL of a β-lactamase inhibitor)	< 100	1000 to 10000	B (B represents the MIC in the presence of between 8 and 32 g/mL of a β-lactamase inhibitor)
O=C(CCn1cccn1)N[C@H]1Cc2cccc(C(=O)O)c2OB1O [Example 28, (R)-2-Hydroxy-3-(3-pyrazol-1-yl-propionylamino)-3,4-dihydro-2H-benzo[e][1,2]oxaborinine-8-carboxylicacid]	B (B represents the MIC in the presence of between 8 and 32 g/mL of a β-lactamase inhibitor)	< 100	C (C represents the MIC in the presence of ≤4 g/mL of a β-lactamase inhibitor)	C (C represents the MIC in the presence of ≤4 g/mL of a β-lactamase inhibitor)	C (C represents the MIC in the presence of ≤4 g/mL of a β-lactamase inhibitor)	< 100	< 100	C (C represents the MIC in the presence of ≤4 g/mL of a β-lactamase inhibitor)	< 100	1000 to 10000	B (B represents the MIC in the presence of between 8 and 32 g/mL of a β-lactamase inhibitor)
